Assay results reported in patent US20240299400A1, “Transcription Factor GLI1 Inhibitors and Uses Thereof” (University of Connecticut, priority 2023, published 2024).

What was measured:
GLI1 mRNA expression [1] = assay: RT-qPCR GLI1 mRNA expression in Sufu-KO MEFs; assay type: cell-based, mouse
Protocol: (§1) ASZ001 and Sufu-KO cells were seeded in 96-well plates (10,000/well, 100 μL) and incubated overnight under growth conditions. On the second day, ‘growth’ media was removed and replaced by ‘assay’ media (100 μL). On the third day, cells were treated with a serial dilution of drugs or DMSO for 48 h. mRNA expression was determined through Taqman Fast Cells-to-CT Kit (#4399003) per the manufacturer's instructions. In brief, cells were washed with chilled PBS, then mixed with lysis solution containing DNase I and incubated at RT for 5 min. Stop solution was then added to quench the lysis reagents. cDNA was then synthesized through a BioRad MyCycler following addition of reverse transcriptase. Finally, the cDNA was amplified through an ABI 7500 system following addition of Taqman Fast Universal PCR Master Mix and Taqman Gene Expression Primer. Relative gene expression levels were computed by the ΔΔCt method. Values represent mRNA expression relative to DMSO control (set at 1.0). Data were analyzed using GraphPad Prism, and IC50 values are the mean±SEM for at least two separate experiments performed in triplicate. Primers used are as follows: mouse ActB (Mm00607939_s1); mouse GLI1 (Mm00494645_ml); mouse Gli2 (Mm01293117_ml); mouse Ptch1 (Mm00436026_ml); mouse Hhip (Mm00469580_ml).

GLI1 mRNA expression [2] = assay: RT-qPCR GLI1 mRNA expression in OHCs-stimulated C3H10T1/2 MEFs; assay type: cell-based, mouse; settings: for % Gli1 Expression: C3H10T1/2 MEFs, 10 μM, relative to Hh-agonist OHCs (set as 100%)
Protocol: as §1
C3H10T1/2 MEFs were seeded in 24-well plates (50,000/well, 500 μL). Following 24 h incubation, the ‘growth’ media was removed and replaced with ‘assay’ media (500 μL). On the third day, cells were treated with either DMSO, OHCs, or OHCs+drugs. Following a 24 h incubation, gene expression analysis was carried out following identical protocols as described above.

GLI1 mRNA expression [3] = assay: RT-qPCR GLI1 mRNA expression in ASZ001 BCC cells; assay type: cell-based, mouse; settings: for reduction of GLI1 expression in ASZ001 (in words): concentrations up to 10 μM
Protocol: as §1

ASZ001 cells = assay: MTS anti-proliferative assay in ASZ001 cells; assay type: cell-based, murine; settings: Mus musculus, ASZ001; Table 5, 48 h, Ave ± SEM
Protocol: Cell viability was assessed by MTS proliferation assay kit (Promega) per manufacturer's protocol. Briefly, 2×10^4 cells were plated in a 96-well plate in 100 μL growth medium to make the cell population at ˜80% confluence. After 24 h, 1 μL drug solution was added to each well. DMSO was used as vehicle compound. After 48 h incubation (37° C., 5% CO2), 20 μL of freshly prepared 3-(4,5-dimethylthiazol-2-yl)-5-(3-carboxymethoxyphenyl)-2-(4-sulfophenyl)-2H-tetrazolium (MTS)/phenazine methosulfate (PMS) solution was added to each well, and the plate was returned to the incubator for 1 h. Absorbance at 490 nm was recorded, and the result was analyzed by GraphPad Prism 5. GI50 values represent mean±SEM for at least two separate experiments performed in triplicate.

[4] = Table 2, mean ± SEM, read-out: GLI1 mRNA expression, IC50 Sufu-KO
[5] = Table 2, mean ± SEM, read-out: GLI1 mRNA expression, IC50 C3H10T1/2
[6] = Table 2, mean ± SEM, read-out: GLI1 mRNA expression, IC50 ASZ001
[7] = Table 4, racemates and enantiomers, mean ± SEM, read-out: RT-qPCR, IC50 Sufu-KO
[8] = Table 4, racemates and enantiomers, mean ± SEM, read-out: RT-qPCR, IC50 C3H10T1/2
[9] = Table 4, racemates and enantiomers, mean ± SEM, read-out: RT-qPCR, IC50 ASZ001
[10] = Mus musculus, Table 5, GLI1 mRNA, Ave ± SEM, read-out: RT-qPCR, IC50 Sufu-KO
[11] = Mus musculus, ASZ001, Table 5, GLI1 mRNA, Ave ± SEM, read-out: RT-qPCR, IC50 ASZ001

Row | SMILES | IC50 (GLI1 mRNA expression [1]; [4]) [nM] | % Gli1 Expression (GLI1 mRNA expression [2]; mean ± SEM) [%] | IC50 (GLI1 mRNA expression [2]; [5]) [nM] | IC50 (GLI1 mRNA expression [3]; [6]) [nM] | also measured
1 | COc1cccc(C(Nc2cc(C)ccn2)c2ccc3cccnc3c2O)c1C (racemic) [Compound 2] | 990 ± 320 | 7.0 ± 1.4 | 760 ± 230 | 5800 ± 1100 | 
2 | Cc1ccnc(NC(c2cc(C)ccc2C)c2ccc3cccnc3c2O)c1 (racemic) [Compound 3] | 310 ± 210 | 10.0 ± 2.4 | 1200 ± 400 | 2200 ± 900 | IC50 (GLI1 mRNA expression [1]; [7]): 310 ± 210 nM; IC50 (GLI1 mRNA expression [2]; [8]): 1200 ± 400 nM; IC50 (GLI1 mRNA expression [3]; [9]): 2200 ± 900 nM
3 | COc1ccc(C(Nc2cc(C)ccn2)c2ccc3cccnc3c2O)cc1O (racemic) [Compound 5] | 630 ± 200 | 6.1 ± 0.6 | 1800 ± 500 | 7100 ± 1200 | 
4 | CCOc1cc(C(Nc2cc(C)ccn2)c2ccc3cccnc3c2O)ccc1OC (racemic) [Compound 6] | 780 ± 160 | 7.6 ± 0.9 | 3100 ± 1200 | > 10000 | reduction of GLI1 expression in ASZ001 (in words) (GLI1 mRNA expression [3]): did not reduce GLI1 expression
5 | Oc1c(C(Nc2ccccn2)c2ccc(Cl)c(Cl)c2)ccc2cccnc12 (racemic) [Compound 7] | 480 ± 220 | 4.2 ± 0.9 | 570 ± 140 | 2800 ± 1500 | IC50 (GLI1 mRNA expression [1]; [7]): 480 ± 220 nM; IC50 (GLI1 mRNA expression [2]; [8]): 570 ± 140 nM; IC50 (GLI1 mRNA expression [3]; [9]): 2800 ± 1500 nM
6 | CSc1ccc(C(Nc2cc(C)ccn2)c2ccc3cccnc3c2O)cc1 (racemic) [Compound 8] | 1300 ± 200 | 4.1 ± 1.1 | 980 ± 470 | 4500 ± 2600 | 
7 | Cc1ccccc1C(Nc1ccccn1)c1ccc2cccnc2c1O (racemic) [Compound 9] | 1900 ± 600 | 10.6 ± 1.9 | 620 ± 190 | > 10000 | reduction of GLI1 expression in ASZ001 (in words) (GLI1 mRNA expression [3]): did not reduce GLI1 expression
8 | Cc1ccnc(NC(c2cccc(Cl)c2Cl)c2ccc3cccnc3c2O)c1 (racemic) [Compound 10] | 1500 ± 400 | 18.2 ± 1.5 | 210 ± 100 | 8400 ± 2000 | IC50 (GLI1 mRNA expression [1]; [7]): 1500 ± 400 nM; IC50 (GLI1 mRNA expression [2]; [8]): 210 ± 100 nM; IC50 (GLI1 mRNA expression [3]; [9]): 8400 ± 2000 nM
9 | Cc1ccc2ccc(C(Nc3ccccn3)c3ccc(Cl)c(Cl)c3)c(O)c2n1 (racemic) [Compound 11] | 3700 ± 1000 | 16.6 ± 0.7 | 390 ± 270 | > 10000 | reduction of GLI1 expression in ASZ001 (in words) (GLI1 mRNA expression [3]): did not reduce GLI1 expression
10 | Oc1c(C(Nc2ccccn2)c2c(F)cccc2Cl)ccc2cccnc12 (racemic) [Compound 12] | 1000 ± 200 | 6.5 ± 0.8 | 730 ± 70 | 3600 ± 1500 | IC50 (GLI1 mRNA expression [1]; [7]): 1000 ± 200 nM; IC50 (GLI1 mRNA expression [2]; [8]): 730 ± 70 nM; IC50 (GLI1 mRNA expression [3]; [9]): 3600 ± 1500 nM
11 | COc1ccc(C(Nc2ccccn2)c2ccc3cccnc3c2O)cc1[N+](=O)[O-] (racemic) [Compound 13] | 1700 ± 100 | 5.9 ± 0.3 | 1000 ± 300 | 3600 ± 1100 | 
12 | CCOc1cccc(C(Nc2cc(C)ccn2)c2ccc3cccnc3c2O)c1OC (racemic) [s2] |  | 63.7 ± 7.2 |  |  | 
13 | CCOc1cccc(C(Nc2cc(C)ccn2)c2ccc3cccnc3c2O)c1C (racemic) [s3] |  | 59.1 ± 11.9 |  |  | 
14 | CCOc1cccc(C(Nc2ccccn2)c2ccc3ccc(C)nc3c2O)c1 (racemic) [s6] |  | 56.1 ± 2.1 |  |  | 
15 | CCOc1ccc(C(Nc2ccccn2)c2ccc3ccc(C)nc3c2O)cc1OC (racemic) [s7] |  | >100 |  |  | 
16 | CCc1ccc(C(Nc2cc(C)ccn2)c2ccc3cccnc3c2O)cc1 (racemic) [s10] |  | 79.4 ± 8.1 |  |  | 
17 | COc1ccc(C(Nc2ccccn2)c2ccc3ccc(C)nc3c2O)cc1C (racemic) [s11] |  | 62.1 ± 6.4 |  |  | 
18 | Cc1ccc2ccc(C(Nc3ccccn3)c3ccccc3Cl)c(O)c2n1 (racemic) [s12] |  | 23.6 ± 2.8 |  |  | 
19 | Cc1ccc2ccc(C(Nc3ccccn3)c3ccccc3F)c(O)c2n1 (racemic) [s14] |  | 78.9 ± 17.6 |  |  | 
20 | CCOc1ccc(C(Nc2ccccn2)c2ccc3ccc(C)nc3c2O)cc1 (racemic) [s16] |  | 86.8 ± 5.7 |  |  | 
21 | COc1ccc(C(Nc2ccccn2)c2ccc3ccc(C)nc3c2O)cc1 (racemic) [s18] |  | >100 |  |  | 
22 | COc1ccc(I)cc1C(Nc1cc(C)ccn1)c1ccc2cccnc2c1O (racemic) [s19] |  | >100 |  |  | 
23 | CCN(CC)c1ccc(C(Nc2ccccn2)c2cc(C)c3ccc(C)nc3c2O)cc1 (centres unmarked) [Compound 16, 7-((4-Diethylaminophenyl)(pyridin-2-ylamino)methyl)-2,5-dimethylquinolin-8-ol] |  |  |  |  | IC50 (GLI1 mRNA expression [1]; [10]): 980 ± 210 nM; GI50 (ASZ001 cells): 15700 ± 2800 nM; IC50 (GLI1 mRNA expression [3]; [11]): 1600 ± 700 nM
24 | CCN(CC)c1ccc(C(Nc2ccccn2)c2ccc3ccccc3c2O)cc1 (centres unmarked) [Compound 17, 2-((4-Diethylaminophenyl)(pyridin-2-ylamino)methyl)naphthalen-1-ol] |  |  |  |  | IC50 (GLI1 mRNA expression [1]; [10]): > 25000 nM; GI50 (ASZ001 cells): > 100000 nM; IC50 (GLI1 mRNA expression [3]; [11]): 9900 ± 1400 nM
25 | CCN(CC)c1ccc(C(Nc2ccccn2)c2c(O)ccc3cccnc23)cc1 (centres unmarked) [Compound 19, 8-((4-Diethylaminophenyl)(pyridin-2-ylamino)methyl)quinolin-7-ol] |  |  |  |  | IC50 (GLI1 mRNA expression [1]; [10]): > 25000 nM; GI50 (ASZ001 cells): > 100000 nM; IC50 (GLI1 mRNA expression [3]; [11]): 14600 ± 1400 nM
26 | CCN(CC)c1ccc(C(Nc2ccccn2)c2ccc3ccc(C)nc3c2OC(C)C)cc1 (centres unmarked) [Compound 21, N-((4-Diethylaminophenyl)(8-isopropoxy-2-methylquinolin-7-yl)methyl)pyridin-2-amine] |  |  |  |  | IC50 (GLI1 mRNA expression [1]; [10]): > 25000 nM; GI50 (ASZ001 cells): > 100000 nM; IC50 (GLI1 mRNA expression [3]; [11]): 840 ± 60 nM
27 | C#CCCOc1c(C(Nc2ccccn2)c2ccc(N(CC)CC)cc2)ccc2ccc(C)nc12 (centres unmarked) [Compound 23, N-((4-Diethylaminophenyl)(8-(but-3-yn-1-yloxy)-2-methylquinolin-7-yl)methyl)pyridin-2-amine] |  |  |  |  | IC50 (GLI1 mRNA expression [1]; [10]): > 25000 nM; GI50 (ASZ001 cells): > 100000 nM; IC50 (GLI1 mRNA expression [3]; [11]): 1900 ± 500 nM
28 | CCN(CC)c1ccc(C(Nc2ccccn2)c2ccc3ccc(C)nc3c2OCc2ccccc2)cc1 (centres unmarked) [Compound 24, N-((4-Diethylaminophenyl)(8-benzyloxy-2-methylquinolin-7-yl)methyl)pyridin-2-amine] |  |  |  |  | IC50 (GLI1 mRNA expression [1]; [10]): > 25000 nM; GI50 (ASZ001 cells): > 100000 nM; IC50 (GLI1 mRNA expression [3]; [11]): 1700 ± 300 nM
29 | CCN(CC)c1ccc(C(Nc2ccccn2)c2ccc3ccc(C)nc3c2OCc2cccc(OC)c2)cc1 (centres unmarked) [Compound 25, N-((4-Diethylaminophenyl)(8-(3-methoxybenzyloxy)-2-methylquinolin-7-yl)methyl)pyridin-2-amine] |  |  |  |  | IC50 (GLI1 mRNA expression [1]; [10]): > 25000 nM; GI50 (ASZ001 cells): > 100000 nM; IC50 (GLI1 mRNA expression [3]; [11]): 1300 ± 400 nM
30 | Cc1ccc(NC(c2cccc(C)n2)c2ccc3cccnc3c2O)nc1 (centres unmarked) [s25] |  | >100 |  |  | 
